Experiment: RP, Thermo Scientific Acclaim RSLC 120 C18, 100 × 2.1 mm, 2.2 µm, 30 °C, 0.2 mL/min, estimated dead time 1.1 min; A: 90% water + 10% methanol + 0.01% formic acid + 5 mM ammonium formate, pH 3.61; B: methanol + 0.01% formic acid + 5 mM ammonium formate, pH 3.61; gradient (min/%B) 0/1 1/1 2/39 13/99.9 15/99.9 15.1/1 20.1/1
Settings: stereoisomer not certain
Work on `CCOP(=S)(NC(C)CC)Oc1cc(C)ccc1[N+](=O)[O-]` (configuration not stated) [Butamifos] yielded an LC retention time of 11.2 min. Compound `O=C(O)Cc1cccc2ccccc12` [Naphthylacetic acid (1-)] has an LC retention time of 7.76 min. For `O=C1CN=C(c2ccccc2Cl)c2cc(Br)ccc2N1` [Phenazepam], the LC retention time was 8.93 min. `CN(C)CC(c1ccc(O)cc1)C1(O)CCCCC1` (configuration not stated) [Venlafaxine-O-Desmethyl (Desvenlafaxine)] gave an LC retention time of 4.76 min. `CSc1nc(NC(C)C)nc(NC(C)C)n1` [Prometryn] showed an LC retention time of 10.1 min. Work on `COC(=O)C(C)N(C(=O)c1ccco1)c1c(C)cccc1C` (configuration not stated) [Furalaxyl] yielded an LC retention time of 8.99 min. With `CN(C)NC(=O)CCC(=O)O` [Daminozide] the LC retention time was 2.18 min. `CCNc1nc(NCC)nc(SC)n1` [Simetryn] gave an LC retention time of 8.14 min. Work on `CC(=O)Nc1nnc(S(N)(=O)=O)s1` [Acetazolamide] yielded an LC retention time of 3.43 min. For `N#Cc1c[nH]cc1-c1cccc2c1OC(F)(F)O2` [Fludioxonil], the LC retention time was 9.48 min. Compound `CCCOc1ccc(S(=O)(=O)N2CCN(CC)CC2)cc1-c1nc(=S)c2c([nH]1)c(CCC)nn2C` [Propoxyphenyl Thiohomosidenafil] has an LC retention time of 10.5 min. Work on `CC1(C)C(C(=O)c2cn(Cc3ccc(F)cc3)c3ccccc23)C1(C)C` [FUB-144] yielded an LC retention time of 12.2 min. Compound `CC1CC(C)C(=O)C(C(O)CC2CC(=O)NC(=O)C2)C1` (configuration not stated) [Cycloheximide] has an LC retention time of 5.99 min. Compound `CC1(C)OC2COC3(COS(N)(=O)=O)OC(C)(C)OC3C2O1` (configuration not stated) [Topiramate] has an LC retention time of 6.08 min. Compound `CCN(CC)CCNC(=O)COc1ccc(OC)cc1` [Mefexamide] has an LC retention time of 4.31 min. For `COC(=O)C1C2CC3c4[nH]c5cc(OC)ccc5c4CCN3CC2CC(OC(=O)c2cc(OC)c(OC)c(OC)c2)C1OC` (configuration not stated) [Reserpine], the LC retention time was 8.47 min. `O=c1oc2ccccc2c(O)c1C1CC(c2ccc(OCc3ccc(C(F)(F)F)cc3)cc2)Cc2ccccc21` (configuration not stated) [Flocoumafen] showed an LC retention time of 12.4 min. With `CC1(C)OC(c2ccco2)CN1C(=O)C(Cl)Cl` (configuration not stated) [Furilazole] the LC retention time was 7.92 min. With `Cc1c(N(C)CS(=O)(=O)O)c(=O)n(-c2ccccc2)n1C` [Dipyron (Metamizol)] the LC retention time was 4.49 min. `CCCCc1c(C)nc(NCC)[nH]c1=O` [Ethirimol] gave an LC retention time of 8 min. In the case of `CC(C)(C)c1ccc(CCOc2ncnc3ccccc23)cc1` [Fenazaquin], the LC retention time was 13.7 min. In the case of `CC(=O)C1(O)CCC2C3C=C(Cl)C4=CC(=O)C5CC5C4(C)C3CCC21C` (configuration not stated) [Cyproterone], the LC retention time was 10.1 min. Compound `CC1(C)CCC(Cc2ccc(Cl)cc2)C1(O)Cn1cncn1` (configuration not stated) [Metconazole] has an LC retention time of 11.2 min. Compound `COCC(=O)Nc1c(I)c(C(=O)NCC(O)CO)c(I)c(C(=O)N(C)CC(O)CO)c1I` (configuration not stated) [Iopromid] has an LC retention time of 3.38 min. `NCCc1ccccc1` [Phenethylamine (2-)] gave an LC retention time of 3.57 min. Compound `CC(CN(C)C)CN1c2ccccc2CCc2ccccc21` (configuration not stated) [Trimipramine] has an LC retention time of 8.31 min. `N#Cc1ccc(CC(=NNC(=O)Nc2ccc(OC(F)(F)F)cc2)c2cccc(C(F)(F)F)c2)cc1` [Metaflumizone] gave an LC retention time of 12.1 min. For `CCCCOC(=O)C1C(C(=O)OCCCC)C2(Cl)C(Cl)=C(Cl)C1(Cl)C2(Cl)Cl` (configuration not stated) [Chlorendate-Dibutyl], the LC retention time was 14 min. For `CCc1cccc(C)c1N1C(=O)COCC1C` (configuration not stated) [Metolachlor-morpholinon], the LC retention time was 7.89 min. Compound `CC1(C)OC2CC3C4CCC5=CC(=O)CCC5(C)C4(F)C(O)CC3(C)C2(C(=O)CCl)O1` (configuration not stated) [Halcinonide] has an LC retention time of 10.8 min. For `c1ccc(CN(CC2=NCCN2)c2ccccc2)cc1` [Antazoline], the LC retention time was 6.41 min. For `CC(C)C(NC(=O)c1nn(CC2CCCCC2)c2ccccc12)C(N)=O` (configuration not stated) [AB-CHMINACA], the LC retention time was 11.3 min. With `CNc1c(C)n(C)n(-c2ccccc2)c1=O` [Methylaminophenazone (4-)] the LC retention time was 4.74 min. Work on `CC(=O)Nc1ccc(OC(=O)c2ccccc2OC(C)=O)cc1` [Benorilate] yielded an LC retention time of 7.41 min. In the case of `COP(=S)(OC)Oc1ccc([N+](=O)[O-])cc1` [Parathion-methyl], the LC retention time was 9.24 min. For `C#CC1(OC(C)=O)CCC2C3CCC4=CC(=NO)CCC4C3CCC21CC` (configuration not stated) [Norgestimate], the LC retention time was 11.9 min. Work on `CC(=O)c1cc2cccc(OCC(O)CNC(C)C)c2o1` (configuration not stated) [Befunolol] yielded an LC retention time of 4.93 min. `O=C(c1cccc2ccccc12)c1cn(CCN2CCOCC2)c2ccccc12` [JWH-200] gave an LC retention time of 9.88 min. Work on `Cc1ccc(C(=O)c2cn(CCCCCO)c3ccccc23)c2ccccc12` [JWH-122-M-N-5-OH-Pentyl] yielded an LC retention time of 10.6 min. In the case of `COc1ccc2cccc(CCNC(C)=O)c2c1` [Agomelatine], the LC retention time was 8.68 min. With `COCC1CN=C(c2ccccc2Cl)c2cc(Br)ccc2N1C` (configuration not stated) [Metaclazepam] the LC retention time was 11.6 min. `CCC1(C2OC(C3OC(O)(CO)C(C)CC3C)CC2C)CCC(C2(C)CCC3(CC(O)C(C)C(C(C)C(OC)C(C)C(=O)O)O3)O2)O1` (configuration not stated) [Monensin] gave an LC retention time of 13.8 min. Compound `CC(C)C1CCC(C(=O)NC(Cc2ccccc2)C(=O)O)CC1` (configuration not stated) [Nateglinide] has an LC retention time of 10.4 min. In the case of `CCOc1cc(Oc2ccc(C(F)(F)F)cc2Cl)ccc1[N+](=O)[O-]` [Oxyfluorfen], the LC retention time was 12.1 min. `CSc1nnc(C(C)(C)C)c(=O)n1N` [Metribuzin] showed an LC retention time of 7.07 min. `CC(C)c1cc(Oc2ccccc2)cc(C(C)C)c1NC(=S)NC(C)(C)C` [Diafenthiuron] gave an LC retention time of 12.9 min. Work on `CC(C(=O)O)N(C(=O)c1ccccc1)c1ccc(F)c(Cl)c1` (configuration not stated) [Flamprop] yielded an LC retention time of 8.6 min. `CCCCCn1cc(C(=O)Cc2ccc(OC)cc2)c2ccccc21` [JWH-201] showed an LC retention time of 11.6 min. With `CNCC(c1ccc(O)cc1)C1(O)CCCCC1` [Venlafaxine-D L-N O-Didesmethyl] the LC retention time was 4.91 min. `CC(C)(C)C(O)C(Oc1ccc(Cl)cc1)n1cncn1` (configuration not stated) [Triadimenol] showed an LC retention time of 9.93 min. With `Cc1ccccc1CC(C)N` (configuration not stated) [Amphetamine-2-methyl (ortetamine)] the LC retention time was 5.17 min. In the case of `CCc1c(C(=O)NCCc2ccc(N3CCCCC3)cc2)[nH]c2ccc(Cl)cc12`, the LC retention time was 12.7 min. In the case of `O=C(NC(=O)c1c(F)cccc1F)Nc1cc(Cl)c(OC(F)(F)C(F)C(F)(F)F)c(Cl)c1F` (configuration not stated) [Noviflumuron], the LC retention time was 12.7 min. `Cn1c(=O)c2c(ncn2CC(O)CO)n(C)c1=O` (configuration not stated) [Diprophylline] gave an LC retention time of 3.76 min. For `CC(C)NCC(O)COc1cccc2[nH]c3ccccc3c12` (configuration not stated) [Carazolol], the LC retention time was 5.49 min. Work on `CC(O)(C(N)=O)c1ccccc1` (configuration not stated) [M-144] yielded an LC retention time of 12.9 min. `CNC(C)C(=O)c1ccc(C)cc1` (configuration not stated) [Mephedrone] showed an LC retention time of 4.49 min. Compound `COc1ccc(CCNCCCC(C#N)(c2ccc(OC)c(OC)c2)C(C)C)cc1OC` (configuration not stated) [Verapamil-Nor] has an LC retention time of 6.96 min. In the case of `NC(N)=NC(N)=NCCc1ccccc1` [Phenformin], the LC retention time was 4.38 min. Work on `COC(=O)C(c1ccccc1Cl)N1CCc2sccc2C1` (configuration not stated) [Clopidogrel] yielded an LC retention time of 11.8 min. Compound `CC(C)N(C(=O)COc1nnc(C(F)(F)F)s1)c1ccc(F)cc1` [Flufenacet] has an LC retention time of 10.1 min. In the case of `CCC1C2CC3C4N(C)c5ccccc5C45CC(C2C5O)[N+]3(CC(O)CN(CC)CC)C1O` (configuration not stated) [Detajmium], the LC retention time was 4.62 min.

Reference: the RepoRT retention time repository (doi:10.1021/acs.analchem.2c02893)
